Data taken from PMC11434422 (2024).

Experiments:
[1] = system: c-MYC-G3 (c-MYC-G3-compDNA1 hybridized to anchorDNA1) (DNA, other) TGGGGAGGGTGGGGAATTTTTTTTTCGTGTATTGCTC; test: SPR, multi-cycle kinetics, 1:1 fit; settings: 150 mM Li+, 10 mM Ca2+; HBS-EP pH 7.4, 10 mM HEPES, 3 mM EDTA, 0.05% P20, 1% DMSO; hemin 10-100 µM
[2] = system: ssDNA (ssDNA-compDNA2 hybridized to anchorDNA2) (DNA, single strand) TGTGTAGTGCGGGTTTTTTTTTTGAGATGCAGATCCTGT; test: SPR, multi-cycle injections; settings: 150 mM Li+, 10 mM Ca2+; HBS-EP pH 7.4, 10 mM HEPES, 3 mM EDTA, 0.05% P20, 1% DMSO; hemin 10-100 µM; highest hemin 100 µM; legend: minimal binding

- KD [1]: 263 ± 3 µM
- binding [2]: no
SMILES: C=CC1=C(C)C2=Cc3c(C=C)c(C)c4[n]3[Fe]([Cl])[n]3c(c(C)c(CCC(=O)O)c3=CC3=NC(=C4)C(C)=C3CCC(=O)O)=CC1=N2
